These results are taken from patent US20250171438A1 (Agios Pharmaceuticals, Inc., priority 2022, published 2025).

This test has as its target T1, human PAH with the R408W mutation (Homo sapiens, UniProt P00439, R408W).
T1 construct: expressed in transfected cells
T1 sequence (P00439 1-452 R408W): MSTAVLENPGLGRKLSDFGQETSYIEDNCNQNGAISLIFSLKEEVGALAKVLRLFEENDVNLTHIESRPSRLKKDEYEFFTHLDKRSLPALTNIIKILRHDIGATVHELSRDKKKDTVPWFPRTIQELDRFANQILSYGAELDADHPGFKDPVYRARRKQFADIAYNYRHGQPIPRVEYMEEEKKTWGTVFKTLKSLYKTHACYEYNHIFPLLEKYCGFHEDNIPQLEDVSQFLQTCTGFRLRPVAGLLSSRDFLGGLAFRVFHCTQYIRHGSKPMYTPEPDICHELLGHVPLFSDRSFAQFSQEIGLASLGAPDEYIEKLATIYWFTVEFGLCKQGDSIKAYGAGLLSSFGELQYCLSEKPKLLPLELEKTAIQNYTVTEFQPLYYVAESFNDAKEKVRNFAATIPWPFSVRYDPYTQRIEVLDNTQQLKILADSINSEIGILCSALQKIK
Put plainly: Cell Based Phenylalanine Flux Assay. The settings on record: A375 cells expressing human R408W PAH, 13C-Tyrosine by LC-MS, average where tested multiple times, read-out: AC50.

Like-named read-outs stand apart in the source and are kept apart here. Bounds are passed on as bounds.

For the compound `CC(C)(O)c1ncc(C(=O)N2CCc3[nH]cnc3[C@H]2c2nc3ccccc3s2)o1` [Example 1448], the AC50 (usually the concentration at which the activity in the assay is half-maximal) (24 hrs compound incubation) was 0.5 to 1 µM.

For `O=C(c1ccn2ncccc12)N1CCc2[nH]cnc2[C@@H]1c1nc2ccccc2s1` [Example 1530, (R)-(4-(benzo[d]thiazol-2-yl)-6,7-dihydro-1H-imidazo[4,5-c]pyridin-5(4H)-yl)(pyrrolo[1,2-b]pyridazin-5-yl)methanone], the AC50 (24 hrs compound incubation) is more than 5 µM. Regarding `O=C(Cc1ncc(C2CC2)s1)N1CCc2[nH]cnc2[C@H]1c1nc2ccccc2s1` [Example 1459], the AC50 (24 hrs compound incubation) fell in the range of 0.5 to 1 µM. On to `COc1ccn2ncc(C(=O)N3CCc4[nH]cnc4C3c3nc4ccc(Br)cc4[nH]3)c2c1` (stereo not shown), for which the AC50 (24 hrs with compound) is more than 5 µM. On the same count and under the same terms, the same measure for `O=C(c1cnn2cc(Cl)ccc12)N1CCc2[nH]cnc2C1c1nc2ccccc2[nH]1` (stereo not shown): 1 to 5 µM.

Regarding `O=C(c1cnn2ccc(Cl)cc12)N1CCc2[nH]cnc2[C@@H]1c1nc2ccc(Br)cc2[nH]1` [Example 966, (R)-(4-(6-bromo-1H-benzo[d]imidazol-2-yl)-6,7-dihydro-1H-imidazo[4,5-c]pyridin-5(4H)-yl)(5-chloropyrazolo[1,5-a]pyridin-3-yl)methanone], under “24 hrs compound incubation”, the AC50 was more than 5 µM. In the case of `O=C(c1cnco1)N1CCc2[nH]cnc2[C@H]1c1nc2ccccc2s1` [Example 1097], the AC50 (24 hrs compound incubation) fell in the range of 0.5 to 1 µM. As to `O=C(Cc1cncs1)N1CCc2[nH]cnc2C1c1nc2ccccc2s1` (stereo not shown), for the setting “24 hrs with compound”, the AC50 was 1 to 5 µM. On to `Cc1nnc(CN2CCc3[nH]cnc3C2c2nc3ccccc3[nH]2)s1` (stereo not shown), for which the AC50 (24 hrs with compound) is more than 5 µM.

`O=C(c1cnn2cc(F)ccc12)N1CCc2[nH]cnc2[C@H]1c1nc2c(F)cccc2s1` [Example 1215, (S)-(4-(4-fluorobenzo[d]thiazol-2-yl)-6,7-dihydro-1H-imidazo[4,5-c]pyridin-5(4H)-yl)(6-fluoropyrazolo[1,5-a]pyridin-3-yl)methanone]: the concentration at half-maximal activity (AC50) (24 hrs compound incubation) was less than 0.5 µM. Same read-out and setting: the same measure for `Cc1ccc(-c2nnc(C(=O)N3CCc4[nH]cnc4[C@@H]3c3nc4c(F)cccc4s3)o2)nc1` [Example 1903, (R)-(4-(4-fluorobenzo[d]thiazol-2-yl)-6,7-dihydro-1H-imidazo[4,5-c]pyridin-5(4H)-yl)(5-(5-methylpyridin-2-yl)-1,3,4-oxadiazol-2-yl)methanone]: 0.5 to 1 µM. `O=C(C1CC1)N1CCc2[nH]cnc2C1c1nc2c(F)cccc2s1` (stereo not shown): the half-maximal activity concentration (AC50) (24 hrs with compound) lay within 1 to 5 µM. For the compound `O=C(c1nccs1)N1CCc2[nH]cnc2[C@@H]1c1nc2cccc(Cl)c2[nH]1` [Example 983, (R)-(4-(7-chloro-1H-benzo[d]imidazol-2-yl)-6,7-dihydro-1H-imidazo[4,5-c]pyridin-5(4H)-yl)(thiazol-2-yl)methanone], the AC50 (24 hrs compound incubation) was more than 5 µM. Consider `Cc1nnc(C(=O)N2CCc3[nH]cnc3[C@H]2c2nc3cccc(F)c3s2)s1` [Example 1331, (S)-(4-(7-fluorobenzo[d]thiazol-2-yl)-6,7-dihydro-1H-imidazo[4,5-c]pyridin-5(4H)-yl)(5-methyl-1,3,4-thiadiazol-2-yl)methanone], for which the AC50 (24 hrs compound incubation) was 0.5 to 1 µM. For the compound `O=C(c1ccn[nH]1)N1CCc2[nH]cnc2C1c1nc2ccccc2s1` (stereo not shown), the AC50 (24 hrs with compound) is more than 5 µM. The same measure, in the same setting: the same measure for `Cn1nc(N)cc1C(=O)N1CCc2[nH]cnc2C1c1nc2c(F)cccc2s1` (stereo not shown): 1 to 5 µM. For the compound `O=C(c1nnc(CCCN2CC(F)C2)o1)N1CCc2[nH]cnc2C1c1nc2ccccc2s1` (stereo not shown), the AC50 (24 hrs with compound) lay in the range of 1 to 5 µM. Turning to `O=C(c1cnco1)N1CC2(CC2)c2[nH]cnc2C1c1nc2ccccc2s1` (stereo not shown), the AC50 (24 hrs with compound) fell in the range of 1 to 5 µM. On to `O=C(c1nnc(-c2cnn(CC(F)(F)F)c2)o1)N1CCc2[nH]cnc2[C@@H]1c1nc2ccccc2s1` [Example 1794, [(4R)-4-(1,3-benzothiazol-2-yl)-1,4,6,7-tetrahydroimidazo[4,5-c]pyridin-5-yl]-[5-[1-(2,2,2-trifluoroethyl)pyrazol-4-yl]-1,3,4-oxadiazol-2-yl]methanone], for which, for the setting “24 hrs compound incubation”, the AC50 is 1 to 5 µM.

As to `COCc1ccc2c(C(=O)N3CC4(CC4)c4[nH]cnc4C3c3nc4ccccc4s3)cnn2c1` (stereo not shown), the AC50 (24 hrs with compound) was more than 5 µM. Turning to `Cc1ncsc1C(=O)N1CCc2[nH]cnc2C1c1nc2ccccc2s1` (stereo not shown), under “24 hrs with compound”, the AC50 is 1 to 5 µM. As for `O=C(c1cnc(Cc2ccccc2)s1)N1CCc2[nH]cnc2[C@@H]1c1nc2ccccc2s1` [Example 1228, (R)-(4-(benzo[d]thiazol-2-yl)-6,7-dihydro-1H-imidazo[4,5-c]pyridin-5(4H)-yl)(2-benzylthiazol-5-yl)methanone], under “24 hrs compound incubation”, the AC50 was 1 to 5 µM. On to `Cc1nc(-c2ccccn2)c(C(=O)N2CCc3[nH]cnc3C2c2nc3c(F)cccc3s2)o1` (stereo not shown), for which, under “24 hrs with compound”, the AC50 fell in the range of 1 to 5 µM. As for `Cn1nc(C(F)(F)F)cc1C(=O)N1CCc2[nH]cnc2[C@@H]1c1nc2c(F)cccc2s1` [Example 1788, (R)-(4-(4-fluorobenzo[d]thiazol-2-yl)-6,7-dihydro-1H-imidazo[4,5-c]pyridin-5(4H)-yl)(1-methyl-3-(trifluoromethyl)-1H-pyrazol-5-yl)methanone], the AC50 (24 hrs compound incubation) is more than 5 µM. Turning to `O=C(c1cncs1)N1CCc2[nH]cnc2[C@@H]1c1nc2cc(F)ccc2s1` [Example 1194, (R)-(4-(5-fluorobenzo[d]thiazol-2-yl)-6,7-dihydro-1H-imidazo[4,5-c]pyridin-5(4H)-yl)(thiazol-5-yl)methanone], the AC50 (24 hrs compound incubation) was more than 5 µM.

Turning to `O=C(c1cnn(CC(F)(F)F)c1Cl)N1CCc2[nH]cnc2[C@@H]1c1nc2c(F)cccc2s1` [Example 1968, (R)-(5-chloro-1-(2,2,2-trifluoroethyl)-1H-pyrazol-4-yl)(4-(4-fluorobenzo[d]thiazol-2-yl)-6,7-dihydro-1H-imidazo[4,5-c]pyridin-5(4H)-yl)methanone], the AC50 (24 hrs compound incubation) lay within 1 to 5 µM. Regarding `Cc1nc(-c2cnn(C(C)C)c2)oc1C(=O)N1CCc2[nH]cnc2[C@H]1c1nc2ccccc2s1` [Example 1423], the AC50 (24 hrs compound incubation) is less than 0.5 µM. As to `CC(C)(C)c1ncc(C(=O)N2CCc3[nH]cnc3[C@H]2c2nc3c(F)cccc3s2)o1` [Example 1430], for the setting “24 hrs compound incubation”, the AC50 is less than 0.5 µM. On the same count and under the same terms, the same measure for `Cc1c(-c2nnc(C(=O)N3CCc4[nH]cnc4[C@@H]3c3nc4ccccc4s3)o2)cnn1C` [Example 1846, (R)-(4-(benzo[d]thiazol-2-yl)-6,7-dihydro-1H-imidazo[4,5-c]pyridin-5(4H)-yl)(5-(1,5-dimethyl-1H-pyrazol-4-yl)-1,3,4-oxadiazol-2-yl)methanone]: 1 to 5 µM.

Regarding `O=C(C1CC1)N1CCc2[nH]cnc2C1c1nc2ccc(F)cc2[nH]1` (stereo not shown), the AC50 (24 hrs with compound) is more than 5 µM. In the case of `O=C(c1n[nH]c2ccccc12)N1CCc2[nH]cnc2[C@H]1c1nc2ccccc2s1` [Example 1049], the AC50 (24 hrs compound incubation) fell in the range of 0.5 to 1 µM.

For the compound `O=C(c1nc2ccccc2s1)N1CCc2[nH]cnc2[C@@H]1c1nc2ccccc2s1` [Example 1002, (R)-benzo[d]thiazol-2-yl(4-(benzo[d]thiazol-2-yl)-6,7-dihydro-1H-imidazo[4,5-c]pyridin-5(4H)-yl)methanone], the AC50 (24 hrs compound incubation) lay within 1 to 5 µM. Turning to `Cc1nnc(CCC(=O)N2CCc3[nH]cnc3C2c2nc3c(F)cccc3s2)s1` (stereo not shown), under “24 hrs with compound”, the AC50 lay in the range of 1 to 5 µM. As for `Clc1cnc(CN2CCc3[nH]cnc3[C@H]2c2nc3ccccc3[nH]2)s1` [Example 980, (S)-2-((4-(1H-benzo[d]imidazol-2-yl)-6,7-dihydro-1H-imidazo[4,5-c]pyridin-5(4H)-yl)methyl)-5-chlorothiazole], the AC50 (24 hrs compound incubation) fell in the range of 0.5 to 1 µM.

In the case of `COc1cccc(C(=O)N2CCc3[nH]cnc3[C@H]2c2nc3ccccc3[nH]2)c1` [(S)-(4-(1H-benzo[d]imidazol-2-yl)-1,4,6,7-tetrahydro-5H-imidazo[4,5-c]pyridin-5-yl)(3-methoxyphenyl)methanone], the AC50 (24 hrs with compound) lay in the range of 1 to 5 µM.

In the case of `O=C(c1nnc(N2CCC(F)CC2)o1)N1CCc2[nH]cnc2[C@@H]1c1nc2ccccc2s1` [Example 1592, (R)-(4-(benzo[d]thiazol-2-yl)-6,7-dihydro-1H-imidazo[4,5-c]pyridin-5(4H)-yl)(5-(4-fluoropiperidin-1-yl)-1,3,4-oxadiazol-2-yl)methanone], under “24 hrs compound incubation”, the AC50 fell in the range of 1 to 5 µM.

`Cn1nc(C(F)F)cc1C(=O)N1CCc2[nH]cnc2[C@H]1c1nc2ccccc2s1` [Example 1803]: the AC50 (24 hrs compound incubation) is less than 0.5 µM. On to `Cc1nnc(C(=O)N2CC(C)c3[nH]cnc3C2c2nc3ccccc3s2)o1` (stereo not shown), for which the AC50 (24 hrs with compound) is more than 5 µM. As to `O=C(c1nnc(OCCC(F)(F)F)o1)N1CCc2[nH]cnc2[C@@H]1c1nc2ccccc2s1` [Example 1789, (R)-(4-(benzo[d]thiazol-2-yl)-6,7-dihydro-1H-imidazo[4,5-c]pyridin-5(4H)-yl)(5-(3,3,3-trifluoropropoxy)-1,3,4-oxadiazol-2-yl)methanone], for the setting “24 hrs compound incubation”, the AC50 was 1 to 5 µM. With `CC(C)(O)c1cc(C(=O)N2CCc3[nH]cnc3[C@H]2c2nc3ccccc3s2)sn1` (single isomer, unassigned), under “24 hrs with compound”, the half-maximal activity concentration (AC50) lay in the range of 1 to 5 µM.

With `Cn1nc(C2CC2)cc1C(=O)N1CCc2[nH]cnc2[C@@H]1c1nc2c(F)cccc2s1` (single isomer, unassigned), where the note is “24 hrs with compound”, the AC50 was more than 5 µM.

`O=C(c1cnn2cc(Cl)ccc12)N1CCc2[nH]cnc2C1c1nc2ccc(Cl)cc2[nH]1` (stereo not shown): the AC50 (24 hrs with compound) is more than 5 µM.

As for `O=C(CC1CC1)N1CCc2[nH]cnc2[C@@H]1c1nc2ccc(Br)cc2s1` [Example 1147, (R)-1-(4-(6-bromobenzo[d]thiazol-2-yl)-6,7-dihydro-1H-imidazo[4,5-c]pyridin-5(4H)-yl)-2-cyclopropylethanone], where the note is “24 hrs compound incubation”, the AC50 fell in the range of 0.5 to 1 µM.
